Laboratory results reported in patent US7425548B2, “Materials and methods for immune system stimulation” (Variety Chidren's Hospital, priority 2004, dated 2008).
Several values for one entry are separate records, joined by “and”; a condition that tells them apart may be missing. Equal values may be shown once.

Key:
[1] = test system: C3a des Arg (alternative pathway); assay: Complement activation pathway EIA in normal blood; set-up: species or system human; conditions: RR1 0-100 μg/ml, 24 hours
Procedure: Normal blood samples from healthy volunteers were incubated with RR1 (0-100 μg) for 24 hours. Human complement C3a des Arg and C4a des Arg correlate EIA Kits (Assay Design Inc., Ann Arbor, Mich.) were used for quantification of classic and alternative pathway of complement activation using an ELISA procedure. ***p<0.001.
Complement activation pathway. Human complement C3a des Arg and C4a des Arg correlate-EIA Kits (ASSAY DESIGN Inc., Ann Arbor, Mich.) were used to measure the cleaved complement components (C3a des Arg and C4a des Arg) according to the manufacturer's protocols. In brief, 1 ml normal blood, drawn from healthy volunteer was incubated with 0-100 μg/ml of RR1 in a CO2 incubator at 37° C. for 24 hours. The treated blood samples were centrifuged at 2000×g at 4° C. and 225 μl of complement reagent ‘A’ was added to an equal volume of the sample supernatant and vortexed thoroughly. To this mixture, 50 μl of 10 N HCl was added, vortexed again and incubated at room temperature for 1 hour. […] The plate was incubated at 37° C. for 1 hour without shaking, added 50 μl of stop solution and absorbance was taken at 405 nm with a reference wavelength of 570 nm in a BIO-RAD Bench top plate reader.

RAW264.7 macrophages = assay: Nonopsonized binding of FITC-zymosan A bioparticles; type: cell-based, mouse; conditions: 1000 μg/ml RR1, 4° C.
Procedure: RR1 inhibits the binding and internalization of nonopsonic binding of zymosan A bioparticles in a dose-dependent manner. The cells were incubated with RR1 for 1 hour on ice (4° C.) in DMEM containing 0.5% FBS followed by zymosan A biparticles for 1 hour on ice. The cells were warmed for 7 minutes at 37° C. for internalization of zymosan A bioparticles and intracellular FITC fluorescence analyzed in a Coulter Elite flow cytometer.
Nonopsonized binding of RR1. To determine the inhibitory effect of RR1 on non-opsonized binding of zymosan A bioparticles, mouse monocyte/macrophage cells (0.5×10^6) were incubated with 0, 100, 500 and 1000 μg/ml of RR1 at 4° C. to prevent the local release of opsonins including complement (Ezekowitz, R. A. et al. J. Clin. Invest., 1985, 76:2368-2376; Brown, G. D. et al. J. Expt. Med., 2002, 196:407-412). After 1 hour incubation on ice, the cells were washed three times with pre-chilled culture medium, added FITC-conjugated zymosan A particles at a ratio of 25 particles/cell and kept on ice for another hour. The cells were washed with PBS twice and incubated in DMEM at 37° C. for 30 minutes in a CO2 incubator. The unbound zymosan particles were removed by extensive washing with medium and the intracellular fluorescence of the zymosan-FITC analyzed in a Coulter Elite flow cytometer.

[2] = test system: NF-κB in RAW264.7 macrophages; assay: NF-κB DNA binding activity of nuclear extracts (ELISA, EMSA); type: cell-based, mouse
Procedure: The macrophages were treated with 100 μg/ml of RR1 and NF-κB activity of the nuclear extracts analyzed at 2, 4, 8, 14, and 20 hours after incubation using ELISA protocol.
NF-κB activity increased with escalating doses of RR1, reaching a plateau at 500 μg/ml.
NF-κB activity. RAW264.7 cells were incubated with 0, 100, 500 and 1000 μg/ml of RR1 for 8 hours and the nuclear proteins were extracted using the NF-κB activity kit from Active Motif, CA according to manufacturer's ELISA instructions. To visualize the NF-κB activation further, Electrophoretic Mobility Shift Assay (EMSA) was performed (Ghosh, S, and Karin, M., Cell, 2002, 109:S81-96; Young, S. H. et al. J. Biol Chem., 2001, 276:20781-20787; Lebron, F. et al. J Biol Chem., 2003, 278:25001-25008) with the nuclear protein. A double stranded probe that binds NF-κB (5′-[…]-3′, SANTA CRUZ BIOTECHNOLOGY, Santa Cruz, Calif.) was radio labeled with ^32P-ATP, and EMSA performed with 5 μg of nuclear extract. The EMSA reaction mixtures were incubated for 30 minutes at room temperature, and DNA-protein complexes were separated on 6% polyacrylamide gels and visualized by autoradiography. […] The nuclear extracts were analyzed for the protein content, and NF-κB activity analyzed using ELISA kit from ACTIVE MOTIF, Carlsbad, Calif.

[3] = test system: HEK293 cells transfected with TLR2; assay: TLR signaling, IL-8 ELISA; type: cell-based, human; conditions: HEK/TLR2, 24 hours
Procedure: (§1) TLR signaling. To determine the involvement of TLR signaling, parental HEK293 as well as HEK293 cells transfected with human TLR2, TLR6, TLR2/6 or TLR4/CD14/MD2 genes (cloned into pDUO plasmid), were used. These cells (0.5×10^6/ml) were incubated with 0-100 μg/ml of RR1 for 24 hours. Since these cells produce very low level of TNF-α and detectable levels of IL-8 upon activation, IL-8 secreted into the medium was analyzed using ELISA procedure. Incidentally, the IL-8 synthesis is also under the control of the transcription factor NF-κB.

[4] = test system: HEK293 cells transfected with TLR4/CD14/MD2; assay: TLR signaling, IL-8 ELISA; type: cell-based, human; conditions: HEK/TLR4/CD14/MD2, 24 hours
Procedure: as §1

parental HEK293 cells = assay: TLR signaling, IL-8 ELISA; type: cell-based, human; conditions: parental HEK, RR1 0-100 μg/ml, 24 hours
Procedure: as §1

normal lymphocytes = assay: Oxidative stress (GSH/GSSG levels); type: cell-based, human; conditions: data not shown

(1,4)-α-D-glucan [RR1]
levels of C3a des Arg of the alternative pathway [1]: step-wise increase
inhibition of nonopsonic binding of FITC-zymosan A bioparticles (fluorescence intensity) (RAW264.7 macrophages): about 65%
time of stimulation at which NF-κB activity peaked ([2]; 100 μg/ml RR1, ELISA): 8 h
RR1 dose at which NF-κB activity reaches a plateau ([2]; 8 hours of stimulation): 500 to 1000 µg/mL and 500 µg/mL
IL-8 production [3]: did not induce IL-8 production
IL-8 production [4]: did not induce IL-8 production
IL-8 production (parental HEK293 cells): did not induce IL-8 production
amount of hydrogen peroxide (normal lymphocytes): No significant elevation
